Experimental data as given in PMC6584114, “Metabolism of IMM-H004 and Its Pharmacokinetic-Pharmacodynamic Analysis in Cerebral Ischemia/Reperfusion Injured Rats” (Frontiers in Pharmacology, 2019).
Like-named read-outs stand apart in the source and are kept apart here.

Legend:
PC12 cells = test: Neuroprotection in oxygen-glucose deprivation injured PC12 cells (MTT cell viability); assay type: cell-based
Method: The neuroprotective activity of IMM-H004 and IMM-H004G was evaluated on PC12 cells damaged by oxygen-glucose deprivation (OGD). PC12 cells were purchased from the American Type Culture Collection. Cultures were maintained at 37°C in 5% CO2 in a humidified incubator. For cell viability assay, PC12 cells were incubated in 96-well plates at a density of 5 × 10^4/ml for 24 h. In the sham group, PC12 cells were cultured in Dulbecco’s modified eagle medium supplemented with 5% fetal bovine serum and 5% equine serum (Gibco, USA). In the OGD group, PC12 cells were cultured in glucose-free Earle’s balanced salt solution supplemented with 15 mM Na2S2O4 for 2 h and then incubated with compounds of nerve growth factor (NGF, 10 μM), edaravone (10 μM, 50 μM), IMM-H004 (1 μM, 10 μM), and IMM-H004G (1 μM, 10 μM), respectively. After 24 h of incubation, MTT (5 mg/ml) was added into the cell cultures and incubated for an additional 4 h. Then the supernatant was removed and 100 μL DMSO was added. Absorbance was measured using an Ultramark microplate reader at a wavelength of 562 nm. The cell viability was expressed as a percentage of the absorbance density value of control cultures.

[1] = design: method as in Jiang et al., 2018; settings: brain microdialysis; ref Jiang et al., 2018; cited from earlier work
[2] = Plasma pharmacokinetics in MCAO/R rats after iv IMM-H004 citrate; assay type: in vivo; settings: rat, iv IMM-H004 citrate 10 mg/kg; for Tmax: iv, 10 mg/kg
Method: The plasma pharmacokinetics (PK) and pharmacodynamics (PD) of IMM-H004 and IMM-H004G were investigated in a cerebral ischemia-reperfusion rat model produced by middle cerebral artery occlusion/reperfusion (MCAO/R) after iv administration of IMM-H004. In brief, rats underwent a 1-h MCAO and then received IMM-H004 citrate (10 mg/kg, dissolved in saline to yield a concentration of 2 mg/ml) immediately after reperfusion, an effective dosing time as reported ([Zuo et al., 2015]; [Yang et al., 2017]). For sham surgery, all the arteries were exposed for the surgical period, but the filament was not inserted into the MCA. Blood samples were collected through external jugular vein cannula into heparinized tubes at 0.033, 0.167, 0.5, 1, 2, 4, 6, 8, 12, 24, 36, and 48 h postdose for IMM-H004 and IMM-H004G detection (50 μL of blood at each time point) and at 0.5, 1, 2, 4, 7, and 10 h postdose for malondialdehyde (MDA) detection (80 μL of blood at each time point). Plasma was immediately separated by centrifugation at 900×g for 5 min. Plasma concentrations of IMM-H004 and IMM-H004G in ischemia-reperfusion rats were determined by LC-MS/MS analysis. The PK parameters were calculated by noncompartmental analysis using WinNonlin Version 6.1 (Pharsight, Mountain View, CA). Plasma MDA concentrations in ischemia-reperfusion and sham rats within 24 h were estimated by enzyme-linked immunosorbent assay.
(§1) The LC-MS/MS system consisted of Shimadzu 30A UPLC and API 4000 triple quadruple mass spectrometer (AB SCIEX, USA). Data acquisition and analysis were accomplished using Analyst 1.5.2 software. The analytes and IS were chromatographed by injection of 1 μL sample. The mobile phases consisted of solvent A (0.5% formic acid in water) and solvent B (0.5% formic acid in methanol) at a flow rate of 0.3 ml/min on an Eclipse Plus C18 column (2.1 mm × 50 mm, 3.5 μm, Agilent, USA), and the operating temperature was 40°C. The elution condition was 10% solvent B for 0.7 min, ascending to 98% B in 2.3 min, holding for 3.0 min and reequilibrating to 10% B within 0.1 min and maintained for 2.4 min (Jiang JW, 2018). The specific transitions monitored were 305→248 for IMM-H004, 291→234 for M1, 291→248 for M2, 481→305 for IMM-H004G, 385→305 for M4, and 260→183 for IS.

[3] = Excretion in rat urine, bile and feces after iv IMM-H004 citrate; assay type: in vivo; settings: iv IMM-H004 citrate 6 mg/kg
Method: After intravenous (iv) injection with IMM-H004 citrate (6 mg/kg, dissolved in saline to yield a concentration of 1.2 mg/ml), rats were housed individually in metabolic cages to allow separate collection of urine and feces until 72 h postdose. Additional rats were bile cannulated under light ether anesthesia. Each rat was housed individually in a metabolic cage and allowed to recover from anesthesia for 2 to 3 h. Then bile duct cannulated rats were iv injected with IMM-H004 citrate (6 mg/kg, dissolved in saline to yield a concentration of 1.2 mg/ml), bile samples were collected until 24 h postdose.
Feces samples were homogenized in 10-fold solvent of water and methanol (1:1) and diluted 10-fold in water. Bile and urine samples were diluted 100-fold in water. The concentrations of IMM-H004, M1, M2, and IMM-H004G in diluted bile, urine, and feces samples were determined by LC-MS/MS.
as §1

MCAO/R rats = test: Neuroprotection in transient MCAO/R rats (infarct volume, neurological score); assay type: in vivo, rat; settings: 10 mg/kg iv after reperfusion, 24 h, vs model
Description: Transient MCAO/R was applied to compare the neuroprotection of IMM-H004 and IMM-H004G. Rats were fasted overnight with free access to water and randomly assigned to different groups. Rats were anesthetized with a mixture of 5% isoflurane and 95% oxygen and maintained with a mixture of 3% isoflurane and 97% oxygen during the surgical procedure. A 4-0 nylon thread, the tip of which was burned (diameter 0.36 mm), was inserted into the right internal carotid artery and advanced until the origin of the right MCA was occluded. After 60 min of the occlusion, the thread was withdrawn to allow reperfusion, and then the rats were returned to the chamber. Saline or edaravone at dose of 6 mg/kg or IMM-H004 citrate and IMM-H004G at dose of 10 mg/kg (dissolved in saline to yield a concentration of 2 mg/ml) were administered by intravenous injection immediately after reperfusion.
The rats were assessed for neurologic deficits at 24 h after reperfusion according to Zea Longa’s five-point scale. […] The animals without symptoms of neurological impairment or dying after the surgery were rejected. All animals were killed 24 h after reperfusion. Brains of the animals were removed and cut into 2 mm-thick slices, for a total of six slices per animal. The slices were immersed in a 2% solution of 2,3,5-triphenyltetrazolium chloride in phosphate buffered saline at 37°C for 20 min and then fixed in 4% formaldehyde overnight. Images of the slices were obtained with a scanner and a computer. The infarct area and the total area were calculated by tracing the areas on the computer screen with Image J. The percentage of the infarct volume was expressed as the infarct volumes (white parts)/the whole volume of the cortex.

[4] = system: primary human hepatocytes; test: IMM-H004 metabolism by primary human hepatocytes; assay type: in vitro ADME; settings: human hepatocytes incubated with 30 nM IMM-H004, up to 3 h
Method: Primary human hepatocytes were used to predict the metabolism of IMM-H004 in humans. Cryopreserved human hepatocytes were obtained from Bioreclamation IVT (Baltimore, MD, USA). Three different hepatocyte preparations (Lot CDP, ZHL, and DSX) were pooled in this study. Hepatocytes were resuspended and seeded in 96-well plates at a density of 0.7 × 10^6 cells/ml. After 24 h of culture, cells were washed with Hanks’ balanced salt solution, followed by addition of 30 nM IMM-H004 dissolved in Hanks’ balanced salt solution. Incubations were carried out at 37°C up to 3 h under gentle shaking. Cell culture supernatant was collected within 3 h and determined by LC-MS/MS. All experiments were conducted in triplicate.
as §1

[5] = system: recombinant human CYP450 enzymes; test: Metabolism by cDNA-expressed human CYP450 enzymes; assay type: in vitro ADME; settings: 1 μM IMM-H004, 50 pmol/ml CYP, 40 min
Method: CYP450s. IMM-H004 was incubated in triplicate with […] individual human complementary DNA (cDNA) expressed CYPs (CYP1A1, 1A2, 2A6, 2B6, 2C8, 2C9, 2C19, 2D6, 2E1, 2J2, 3A4, 4A11, 4F2, and 4F3) at 37°C. The incubation mixtures contained individual CYP450 enzymes (50 pmol/ml), IMM-H004 (1 μM), and NADPH regeneration system in a final volume of 0.2 ml Tris-HCl buffer (50 mM, pH 7.4) containing 5 mM MgCl2. The mixtures were incubated for 40 min before being quenched with two volumes of ice-cold acetonitrile containing IS (100 ng/ml). After vortex-mixing and centrifugation, M1 and M2 in the supernatant were analyzed by LC-MS/MS.

chemokine-like factor 1 = system: chemokine-like factor 1; design: method as in earlier work; settings: ref Li et al., 2010, Kong et al., 2011, Sun et al., 2013, 2014, read-out: IC50 as antagonist of chemokine-like factor 1; cited from earlier work
cell cultures = settings: not tested in this paper's methods; reference not given; cited from earlier work

Compound | cell viability of OGD-injured PC12 cells (PC12 cells; 1 and 10 μM, 24 h, MTT, vs model group) | IMM-H004 detected in PC12 cultures after incubation with IMM-H004G (PC12 cells; 24 h of incubation with IMM-H004G) | exposure of IMM-H004G in rat brain extracellular fluid relative to IMM-H004 [1] | AUC(0-inf) [2] | AUC(0-t) [2] | Cmax [2] | MRT last ([2]; read-out: MRT(0-t)) | MRT inf ([2]; read-out: MRT(0-∞)) | half-life ([2]; read-out: t 1/2β (converted)) | Tmax ([2]; read-out: T max) | Tmax ([2]; read-out: time to maximum plasma concentration after dosing) | recovery of IMM-H004G in bile ([3]; bile duct cannulated rats, until 24 h) | IMM-H004G in feces ([3]; rat feces) | urinary IMM-H004G recovered ([3]; rat urine, 72-h sampling period) | infarct volume (MCAO/R rats) | neurological test score (MCAO/R rats) | detection of metabolite in cell supernatant [4] | M1 formation in CYP450 enzyme incubations [5] | IC50 (chemokine-like factor 1) | neuroprotective activity in cell cultures (cell cultures)
COc1cc(OC2OC(C(=O)O)C(O)C(O)C2O)cc2oc(=O)c(N3CCN(C)CC3)c(C)c12 (stereo not shown) [IMM-H004G] | significant (p < 0.05) preservation of viability | only trace of IMM-H004 could be detected | 10.5 fold | 29100 ng·h/mL | 28900 ng·h/mL | 13000 ng/mL | 7.89 ± 0.57 h | 8.16 ± 0.65 h | 6.61 ± 0.86 h | 0.17 h | ≤ 0.25 h | 75.9 % of intake | undetectable | 69.7 % of intake | markedly reduced (p < 0.01) | significant improvement (p < 0.01) | could be detected | – | – | –
COc1cc(O)cc2oc(=O)c(N3CCNCC3)c(C)c12 [M2] | – | – | – | – | – | – | – | – | – | – | – | – | – | – | – | – | not detectable | – | – | –
Cc1c(N2CCN(C)CC2)c(=O)oc2cc(O)cc(O)c12 [M1] | – | – | – | – | – | – | – | – | – | – | – | – | – | – | – | – | not detectable | could not be detected in all CYP450 enzymes incubations | 21.2 nM | showed neuroprotective activity in cell cultures
